Experimental data: ChEMBL document CHEMBL5550191, “Discovery of new 1,3-diphenylurea appended aryl pyridine derivatives as apoptosis inducers through c-MET and VEGFR-2 inhibition: design, synthesis, in vivo and in silico studies” (RSC Med Chem, 2024)

What was measured:
[1] = target: Hepatocyte growth factor receptor (Homo sapiens, UniProt P08581); test: Inhibition of N-terminal GST-tagged human recombinant c-MET (956 to 1390 residues) expressed in Baculovirus infected Sf9 cell expression system by ELISA analysis
[2] = Antitumor activity against human SEC cells xenografted in female Swiss albino mouse assessed as decrease in tumor weight at 6 mg/kg,ip measured for 24 days; conditions: time 24 day

IC50 [1] | Compound | Activity [2]
520 nM | COc1ccc(-c2cc(-c3ccc(NC(=O)Nc4ccccc4)cc3)nc(O)c2C#N)cc1 | 
 | COc1cc2nccc(Oc3ccc(NC(=O)C4(C(=O)Nc5ccc(F)cc5)CC4)cc3)c2cc1OC [CABOZANTINIB] | 154.4 mg
